The results in this text go back to publication PMC10218941, “Design, Synthesis, Antiproliferative Actions, and DFT Studies of New Bis–Pyrazoline Derivatives as Dual EGFR/BRAF^V600E Inhibitors” (International Journal of Molecular Sciences, 2023).

Each structure is given as a SMILES string.

One assay concerns the target BRAF^V600E. As to the kind of experiment: BRAF^V600E inhibitory assay.
The target in another assay is T1, EGFR (Homo sapiens, UniProt P00533).
T1 construct: 645–1186); His6 (N); made in house; host or cells: Sf-9 insect cells (baculovirus; pBlueBacHis2B / pFASTBacHTc
Put plainly: EGFR inhibitory assay. To be noted: read-out: EGFR Inhibition IC50 ± SEM. It is filed as biochemical. Here is the method: 4.2.2. EGFR inhibitory assay
Baculoviral expression vectors including pBlueBacHis2B and pFASTBacHTc were used […]
(1 picture or pasted object on this page, not shown here)
5ʹ upstream to the EGFR sequence comprised a sequence that encoded (His)6. Sf-9 cells were infected for 72h for protein expression. The pellets of Sf-9 cells were solubilized in a buffer containing sodium vanadate (100 μM), aprotinin (10 μg/mL), triton (1%), HEPES […]
centrifugation for 20 min.
Histidine-linked proteins were first eluted with 250 and then […]
enhancement solution was added to each well and the signal was recorded at excitation and […]
The autophosphorylation percentage inhibition by compounds was calculated using the following equation: […]

The subject of assay [1] is MCF-7 (breast cancer cell line). Put plainly: Antiproliferative assay (MTT), MCF-7. The assay is classed as cell-based. The conditions noted are these: Homo sapiens, MCF7; read-out: Antiproliferative Activity IC50 ± SEM (µM) MCF-7. The procedure: (§1) The antiproliferative activity of pyrazoline hybrids 8–17 was tested against the four human cancer cell lines Panc-1 (pancreatic cancer cell line), MCF-7 (breast cancer cell line), HT-29 (colon cancer cell line), and A-549 (lung cancer cell line) using the MTT assay and doxorubicin as the reference drug. See Appendix SA (Supplementary File).
(§2) 4.2. Biological evaluation
(§3) 4.2.1. Cytotoxic activity using MTT Assay and evaluation of IC50 […]
(§4) 96-well flat-bottomed cell culture plates were used to seed the cells at a […]
(§5) of 10^4 cells mL-1. The medium was aspirated from all the wells of culture plates after 24 h followed by the addition of synthesized compounds (in 200 μL medium to yield a final concentration of 0.1% (v/v) dimethyl sulfoxide) into individual wells of the plates. Four wells were designated to a single compound. The plates were allowed to incubate at 37°C for 96 h. Afterwards, the medium was aspirated and 3 -[4,5-dimethylthiazol-2-yl]-2,5-diphenyltetrazolium bromide (MTT) (0.4 mg/mL) in medium was added to each well and subsequent ly incubated for 3 h. The medium was aspirated and 150 μL dimethyl sulfoxide (DMSO) was added to each well. The plates were vortexed followed by the measurement of absorbance at 540 nm on a microplate reader. The results were presented as inhibition (%) of proliferation in contrast to controls comprising 0.1% 4.2.1.2. Assay for antiproliferative effect
(§6) To explore the antiproliferative potential of compounds propidium iodide fluorescence assay was performed using different cell lines such as Panc -1 (pancreas cancer cell line), MCF-7 (breast cancer cell line), HT-29 (colon cancer cell line) and A-549 (epithelial cancer cell line), respectively. To calculate the total nuclear DNA, a fluorescent dye (propidium iodide, PI) is used which can attach to the DNA, thus offering a quick and precise technique. PI cannot pass through the cell membrane and its signal intensity can be considered as directly proportional to quantity of cellular DNA. Cells whose cell membranes are damaged or have changed permeability are counted as dead ones. The assay was performed by seeding the cells of different cell lines at a density of 3000-7500 cells/well (in200μl medium) in culture plates followed by incubation for 24h at 37 °C in humidified 5%CO2/95% air atmospheric conditions. The medium was removed; the compounds were added to the plates at 10 μM concentrations (in 0.1% DMSO) in triplicates, followed by incubation for 48h. DMSO (0.1%) was used as control. After incubation, medium was removed followed by the addition of PI (25 μl, 50μg/mL in water/medium) to each well of the plates. At - 80 °C, the plates were allowed to freeze for 24 h, followed by thawing at 25 °C. A fluorometer (Polar-Star BMG Tech) was used to record the readings at excitation and emission wavelengths of 530 and 620 nm for each well. The percentage cytotoxicity of compounds was calculated using […]
(§7) Where ATC= Absorbance of treated cells and AC= Absorbance of control. Erlotinib was used as positive control in the assay. […]

Assay [2] concerns HT-29 (colon cancer cell line). As to the kind of experiment: Antiproliferative assay (MTT), HT-29. It is filed as cell-based. The conditions noted are these: Homo sapiens, read-out: Antiproliferative Activity IC50 ± SEM (µM) HT-29. The procedure: The antiproliferative activity of pyrazoline hybrids 8–17 was tested against the four human cancer cell lines Panc-1 (pancreatic cancer cell line), MCF-7 (breast cancer cell line), HT-29 (colon cancer cell line), and A-549 (lung cancer cell line) using the MTT assay and doxorubicin as the reference drug. See Appendix SA (Supplementary File). […]
4.2.1.2. Assay for antiproliferative effect
as §6, §7

Assay [3] deals with A-549 (lung cancer cell line). As to the kind of experiment: Antiproliferative assay (MTT), A-549. It is filed as cell-based. The conditions noted are these: Homo sapiens, A549; read-out: Antiproliferative Activity IC50 ± SEM (µM) A-549. The procedure: as §1, §2, §3, §4, §5, §6, §7

BRAF^V600E, sequence (P28028 whole entry V585E): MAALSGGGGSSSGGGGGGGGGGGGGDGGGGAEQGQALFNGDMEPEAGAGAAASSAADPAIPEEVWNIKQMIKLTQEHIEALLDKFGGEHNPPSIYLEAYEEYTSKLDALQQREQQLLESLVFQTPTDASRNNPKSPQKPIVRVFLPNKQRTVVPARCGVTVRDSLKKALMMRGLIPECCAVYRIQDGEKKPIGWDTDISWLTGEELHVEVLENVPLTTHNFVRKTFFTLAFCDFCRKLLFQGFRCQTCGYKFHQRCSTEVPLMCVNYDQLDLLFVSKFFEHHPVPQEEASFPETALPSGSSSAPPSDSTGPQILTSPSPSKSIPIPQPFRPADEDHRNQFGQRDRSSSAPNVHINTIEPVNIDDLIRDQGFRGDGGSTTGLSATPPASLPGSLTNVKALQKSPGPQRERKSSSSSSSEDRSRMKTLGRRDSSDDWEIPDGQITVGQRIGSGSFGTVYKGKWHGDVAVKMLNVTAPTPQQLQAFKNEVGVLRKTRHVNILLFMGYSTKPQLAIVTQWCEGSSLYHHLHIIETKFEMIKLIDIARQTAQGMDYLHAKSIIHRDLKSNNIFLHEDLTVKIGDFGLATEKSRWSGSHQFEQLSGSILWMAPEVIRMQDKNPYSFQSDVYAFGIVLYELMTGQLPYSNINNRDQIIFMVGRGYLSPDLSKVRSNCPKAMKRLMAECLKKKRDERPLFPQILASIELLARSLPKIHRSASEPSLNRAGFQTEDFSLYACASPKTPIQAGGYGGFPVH
T1 sequence (P00533 669-1210): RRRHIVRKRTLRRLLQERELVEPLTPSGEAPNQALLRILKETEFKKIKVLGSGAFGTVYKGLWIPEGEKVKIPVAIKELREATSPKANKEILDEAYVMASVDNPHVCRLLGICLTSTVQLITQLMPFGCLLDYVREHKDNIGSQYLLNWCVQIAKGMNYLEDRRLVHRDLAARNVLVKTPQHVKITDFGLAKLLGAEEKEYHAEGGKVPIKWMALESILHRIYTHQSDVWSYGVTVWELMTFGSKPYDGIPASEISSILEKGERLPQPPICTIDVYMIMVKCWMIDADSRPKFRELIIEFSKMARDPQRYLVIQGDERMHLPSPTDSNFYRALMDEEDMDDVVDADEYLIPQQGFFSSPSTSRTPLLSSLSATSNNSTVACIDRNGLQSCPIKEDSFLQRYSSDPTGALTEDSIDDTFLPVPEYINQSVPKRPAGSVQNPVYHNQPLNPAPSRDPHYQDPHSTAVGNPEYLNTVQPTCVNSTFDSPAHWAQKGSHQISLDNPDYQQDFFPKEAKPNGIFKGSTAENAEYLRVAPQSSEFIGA
Experimental for BRAF^V600E: V600E mutant BRAF kinase assay was performed to investigate the activity of tested compounds against BRAF. Mouse full-length GST-tagged BRAFV600E (7.5 ng, Invitrogen, PV3849) was pre-incubated with drug (1 µL) and assay dilution buffer (4 µL) for 60 min at 25 °C. In assay dilution buffer, a solution (5 µL) containing MgCl2 (30 mM), ATP (200 µM), recombinant human full length (200 ng) and N-terminal His-tagged MEK1 (Invitrogen) was added to start the assay, subsequent to incubation for 25 min at 25 °C. The assay was stopped using 5X protein denaturing buffer (LDS) solution (5 µL). To further denature the protein, heat (70° C) was applied for 5 min.
10 µL of each reaction was loaded into the precast plates and electrophoresis was allowed to proceed. After completion of electrophoresis, the front part of the precast gel plate (holding hot ATP) was cut and afterwards cast-off. The dried gel was developed using a phosphor screen.
served as positive control.

Take `COc1ccc(C2CC(c3ccc(OCC(=O)Nc4ccc(C5=NNC(c6ccc(OC)c(OC)c6)C5)cc4)cc3)=NN2)cc1` (stereo not shown) [Compound 12, 2-(4-(5-(4-Methoxyphenyl)-4,5-dihydro-1H-pyrazol-3-yl)phenoxy)-N-(4-(5-(3,4-dimethoxyphenyl)-4,5-dihydro-1H-pyrazol-3-yl)phenyl)acetamide]: the IC50 came out at 93 ± 6 nM against BRAF^V600E; 81 ± 5 nM on EGFR; 0.9 ± 0.1 µM in assay [1]; 1.2 ± 0.1 µM in assay [2]; 1 ± 0.1 µM in assay [3].
On the same counts, the results for `COc1ccc(C2CC(c3ccc(NC(=O)COc4ccc(C5=NNC(c6ccc(OC)c(OC)c6)C5)cc4)cc3)=NN2)cc1` (stereo not shown) [Compound 17, 2-(4-(5-(3,4-Dimethoxyphenyl)-4,5-dihydro-1H-pyrazol-3-yl)phenoxy)-N-(4-(5-(4-methoxyphenyl)-4,5-dihydro-1H-pyrazol-3-yl)phenyl)acetamide] are 107 ± 9 nM, 87 ± 6 nM, 1 ± 0.1 µM, 1.3 ± 0.1 µM and 1.2 ± 0.1 µM.

For orientation: IC50 means the concentration that gives 50% inhibition.
